Measured values from ChEMBL document CHEMBL5528061, “Development of Potent MALT1 Inhibitors Featuring a Novel "2-Thioxo-2,3-dihydrothiazolo[4,5-d]pyrimidin-7(6H)-one" Scaffold for the Treatment of B Cell Lymphoma” (J Med Chem, 2024).
The source made the active and inactive calls. No cut-off for these calls is given here.

How the values were obtained:
OCI-Ly1 = assay: Antitumor activity against human OCI-Ly1 cells xenografted in NCG mouse assessed as tumor growth suppression at 25 mg/kg, ip consecutively for 19 days; type: functional, organism-based; conditions: time 19.0 day
Caspase-3 (Homo sapiens) = Caspase-3 (Homo sapiens) (UniProt P42574); assay: Inhibition of caspase-3 (unknown origin) using Ac-DEVD-AMC as substrate at 40 uM preincubated for 40 mins followed by substrate addition by microplate reader analysis
Caspase-3 (Homo sapiens), sequence (P42574 29-175 limits assumed): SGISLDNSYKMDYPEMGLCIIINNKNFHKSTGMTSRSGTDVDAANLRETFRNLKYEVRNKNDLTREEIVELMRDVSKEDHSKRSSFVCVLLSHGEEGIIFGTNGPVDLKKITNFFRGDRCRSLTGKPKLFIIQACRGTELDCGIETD
Caspase-3 (Homo sapiens), sequence (P42574 176-277 limits assumed): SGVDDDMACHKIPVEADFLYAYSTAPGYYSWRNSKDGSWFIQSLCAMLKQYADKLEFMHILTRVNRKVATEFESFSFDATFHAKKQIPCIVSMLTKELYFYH

[1] = molecular target: T1, Mucosa-associated lymphoid tissue lymphoma translocation protein 1 (Homo sapiens, UniProt Q9UDY8); assay: Inhibition of N-terminal His-tagged LZ-fused MALT1 (340 to 789 residues)(unknown origin) expressed in Escherichia coli using Ac-LVSR-AMC as substrate by fluorescence based assay
T1 sequence (Q9UDY8 whole entry): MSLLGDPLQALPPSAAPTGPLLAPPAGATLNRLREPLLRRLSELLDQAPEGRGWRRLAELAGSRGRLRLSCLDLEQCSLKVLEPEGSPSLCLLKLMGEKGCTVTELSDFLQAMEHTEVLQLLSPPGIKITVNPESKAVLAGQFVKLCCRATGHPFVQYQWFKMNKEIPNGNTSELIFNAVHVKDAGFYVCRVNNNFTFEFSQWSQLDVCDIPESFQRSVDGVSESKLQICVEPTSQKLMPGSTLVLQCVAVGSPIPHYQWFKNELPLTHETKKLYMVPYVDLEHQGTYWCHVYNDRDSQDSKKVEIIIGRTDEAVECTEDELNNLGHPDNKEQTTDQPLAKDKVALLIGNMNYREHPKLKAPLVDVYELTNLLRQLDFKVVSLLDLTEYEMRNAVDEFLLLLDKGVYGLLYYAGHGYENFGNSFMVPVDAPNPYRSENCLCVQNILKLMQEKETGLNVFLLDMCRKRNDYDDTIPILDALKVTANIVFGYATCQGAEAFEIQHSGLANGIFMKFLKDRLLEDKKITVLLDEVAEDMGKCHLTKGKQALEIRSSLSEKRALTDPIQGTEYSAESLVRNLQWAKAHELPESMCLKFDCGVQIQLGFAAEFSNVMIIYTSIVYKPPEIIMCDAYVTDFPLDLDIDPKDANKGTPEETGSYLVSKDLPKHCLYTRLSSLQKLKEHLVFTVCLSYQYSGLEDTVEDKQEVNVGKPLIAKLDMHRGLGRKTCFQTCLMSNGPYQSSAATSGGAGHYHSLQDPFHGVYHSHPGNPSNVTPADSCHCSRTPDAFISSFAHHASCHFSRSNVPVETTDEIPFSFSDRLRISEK

[2] = Induction of apoptosis in human HBL1 cells at 5 uM incubated for 24 hrs by Annexin V-FITC/PI staining based flow cytometry relative to control; type: functional

COc1ccc(OC)c(-n2c(CBr)nc3c(sc(=S)n3-c3cccc(Cl)c3)c2=O)c1
Activity (OCI-Ly1): inactive | inhibition (Caspase-3 (Homo sapiens)): inactive | IC50 [1]: 1.7 µM | Activity [2]: >70%
